Data from patent US20100144779A1, “Marine Alkalod Makaluvamines and Derivatives Thereof” (THE UAB RESEARCH FOUNDATION, priority 2007, published 2010).

Legend:
Assay in all cases: NCI60 cell line screen (SRB)
Type in all cases: cell-based, human
786-0 = conditions: 786-0, Renal Cancer, 48 h
Description: (§1) This panel implements the NCI60 cell line screen, including leukemia, non-small cell lung cancer, colon cancer, central nervous system cancer, melanoma, ovarian cancer, renal cancer, prostate cancer and breast cancer. The cell lines tested are specified in Table 3.
(§2) Generally, the human tumor cell lines of the cancer screening panel are grown in RPMI 1640 medium containing 5% fetal bovine serum and 2 mM L-glutamine. For a typical screening experiment, cells are inoculated into 96 well microtiter plates in 100 μL at plating densities ranging from 5,000 to 40,000 cells/well depending on the doubling time of individual cell lines. After cell inoculation, the microtiter plates are incubated at 37° C., 5% CO2, 95% air and 100% relative humidity for 24 h prior to addition of experimental drugs. After 24 h, two plates of each cell line are fixed in situ with TCA, to represent a measurement of the cell population for each cell line at the time of drug addition (Tz). Experimental drugs are solubilized in dimethyl sulfoxide at 400-fold the desired final maximum test concentration and stored frozen prior to use. At the time of drug addition, an aliquot of frozen concentrate is thawed and diluted to twice the desired final maximum test concentration with complete medium containing 50 μg/ml gentamicin. Additional four, 10-fold or ½ log serial dilutions are made to provide a total of five drug concentrations plus control. Aliquots of 100 μl of these different drug dilutions are added to the appropriate microtiter wells already containing 100 μl of medium, resulting in the required final drug concentrations.
(§3) Following drug addition, the plates are incubated for an additional 48 h at 37° C., 5% CO2, 95% air, and 100% relative humidity. For adherent cells, the assay is terminated by the addition of cold TCA. Cells are fixed in situ by the gentle addition of 50 μl of cold 50% (w/v) TCA (final concentration, 10% TCA) and incubated for 60 minutes at 4° C. The supernatant is discarded, and the plates are washed five times with tap water and air dried. Sulforhodamine B (SRB) solution (100 μl) at 0.4% (w/v) in 1% acetic acid is added to each well, and plates are incubated for 10 minutes at room temperature. After staining, unbound dye is removed by washing five times with 1% acetic acid and the plates are air dried. Bound stain is subsequently solubilized with 10 mM trizma base, and the absorbance is read on an automated plate reader at a wavelength of 515 nm. For suspension cells, the methodology is the same except that the assay is terminated by fixing settled cells at the bottom of the wells by gently adding 50 μl of 80% TCA (final concentration, 16% TCA). Using the seven absorbance measurements (time zero, Tz, control growth, (control), and test growth in the presence of drug at the five concentration levels (Ti)), the percentage growth is calculated at each of the drug concentrations levels. Percentage growth inhibition is calculated as:
(§4) [(Ti−Tz)/(C−Tz)]×100 for concentrations for which Ti>/=Tz
(§5) [(Ti−Tz)/Tz]×100 for concentrations for which Ti<Tz.

A498 = conditions: A498, Renal Cancer, 48 h
Description: as §1, §2, §3, §4, §5

ACHN = conditions: Renal Cancer, 48 h
Description: as §1, §2, §3, §4, §5

CCRF-CEM = conditions: Leukemia, 48 h
Description: as §1, §2, §3, §4, §5

COLO 205 = conditions: COLO 205, Colon Cancer, 48 h
Description: as §1, §2, §3, §4, §5

DU-145 = conditions: DU-145, Prostate Cancer, 48 h
Description: as §1, §2, §3, §4, §5

HCC-2998 = conditions: HCC-2998, Colon Cancer, 48 h
Description: as §1, §2, §3, §4, §5

HCT-116 = conditions: HCT-116, Colon Cancer, 48 h
Description: as §1, §2, §3, §4, §5

HOP-62 = conditions: HOP-62, Non-Small Cell Lung Cancer, 48 h
Description: as §1, §2, §3, §4, §5

HOP-92 = conditions: HOP-92, Non-Small Cell Lung Cancer, 48 h
Description: as §1, §2, §3, §4, §5

IGROV1 = conditions: IGROV1, Ovarian Cancer, 48 h
Description: as §1, §2, §3, §4, §5

M14 = conditions: M14, Melanoma, 48 h
Description: as §1, §2, §3, §4, §5

MCF-7 = conditions: MCF-7, Breast Cancer, 48 h
Description: as §1, §2, §3, §4, §5

MDA-MB-435 = conditions: MDA-MB-435, Breast Cancer, 48 h
Description: as §1, §2, §3, §4, §5

MOLT-4 = conditions: MOLT-4, Leukemia, 48 h
Description: as §1, §2, §3, §4, §5

OVCAR5 = conditions: OVCAR5, Ovarian Cancer, 48 h
Description: as §1, §2, §3, §4, §5

OVCAR8 = conditions: OVCAR8, Ovarian Cancer, 48 h
Description: as §1, §2, §3, §4, §5

SF-539 = conditions: SF-539, CNS Cancer, 48 h
Description: as §1, §2, §3, §4, §5

SK-MEL-28 = conditions: SK-MEL-28, Melanoma, 48 h
Description: as §1, §2, §3, §4, §5

SK-MEL-5 = conditions: SK-MEL-5, Melanoma, 48 h
Description: as §1, §2, §3, §4, §5

SK-OV-3 = conditions: SK-OV-3, Ovarian Cancer, 48 h
Description: as §1, §2, §3, §4, §5

SNB-75 = conditions: SNB-75, CNS Cancer, 48 h
Description: as §1, §2, §3, §4, §5

TK-10 = conditions: TK-10, Renal Cancer, 48 h
Description: as §1, §2, §3, §4, §5

U251 = conditions: U251, CNS Cancer, 48 h
Description: as §1, §2, §3, §4, §5

UACC-62 = conditions: UACC-62, Melanoma, 48 h
Description: as §1, §2, §3, §4, §5

In the case of CNC1=CC2=NCCc3c[nH]c(c32)C1=O [Compound 4a], the GI50 (786-0) is reported as 10500 nM, the GI50 (A498) is reported as 20700 nM and the GI50 (ACHN) is reported as 13100 nM. For the same molecule, the GI50 (CCRF-CEM) was 2970 nM, the GI50 (COLO 205) was 1750 nM and the GI50 (DU-145) was 2290 nM. For the same molecule, the GI50 (HCC-2998) was 4910 nM, the GI50 (HCT-116) was 2940 nM and the GI50 (HOP-62) was 1280 nM. The GI50 (HOP-92) was 1280 nM, the GI50 (IGROV1) was 2900 nM and the GI50 (M14) was 2570 nM. For the same molecule, the GI50 (MCF-7) was 1520 nM, the GI50 (MDA-MB-435) was 1800 nM and the GI50 (MOLT-4) was 1970 nM. The GI50 (OVCAR5) was 17300 nM, the GI50 (OVCAR8) was 3190 nM and the GI50 (SF-539) was 2390 nM. The GI50 (SK-MEL-28) was 6620 nM, the GI50 (SK-MEL-5) was 1450 nM and the GI50 (SK-OV-3) was 18700 nM. For the same molecule, the GI50 (SNB-75) was 1380 nM, the GI50 (TK-10) was 15400 nM and the GI50 (U251) was 4200 nM. The GI50 (UACC-62) was 2490 nM.

For COc1ccc(CCNC2=CC3=NCCc4c[nH]c(c43)C2=O)cc1OC.O=C(O)C(F)(F)F [Compound 20], the GI50 (786-0; Homo sapiens) was 5430 nM, the GI50 (A498; Homo sapiens) was 7240 nM and the GI50 (ACHN; Homo sapiens) was 4210 nM. It also gave a GI50 (CCRF-CEM; Homo sapiens) of 10600 nM, a GI50 (COLO 205; Homo sapiens) of 1390 nM and a GI50 (DU-145; Homo sapiens) of 2810 nM. It also gave a GI50 (HCC-2998; Homo sapiens) of 2350 nM, a GI50 (HCT-116; Homo sapiens) of 2400 nM and a GI50 (HOP-62; Homo sapiens) of 5170 nM. It also gave a GI50 (HOP-92; Homo sapiens) of 1030 nM, a GI50 (IGROV1; Homo sapiens, IGROV-1) of 4240 nM and a GI50 (M14; Homo sapiens) of 2260 nM. It also gave a GI50 (MCF-7; Homo sapiens, MCF7) of 2610 nM, a GI50 (MDA-MB-435; Homo sapiens) of 2050 nM and a GI50 (MOLT-4; Homo sapiens) of 4950 nM. For the same molecule, the GI50 (OVCAR5; Homo sapiens, OVCAR-5) was 5140 nM, the GI50 (OVCAR8; Homo sapiens, OVCAR-8) was 1790 nM and the GI50 (SF-539; Homo sapiens) was 3280 nM. The GI50 (SK-MEL-28; Homo sapiens) was 10100 nM, the GI50 (SK-MEL-5; Homo sapiens) was 1330 nM and the GI50 (SK-OV-3; Homo sapiens) was 14600 nM. For the same molecule, the GI50 (SNB-75; Homo sapiens) was 5220 nM, the GI50 (TK-10; Homo sapiens) was 5100 nM and the GI50 (U251; Homo sapiens, U-251) was 3440 nM. For the same molecule, the GI50 (UACC-62; Homo sapiens) was 2170 nM.
